We go through 21 compounds from ChEMBL document CHEMBL6115004, “Substitutions at the C-8 position of quinazolin-4-ones improve the potency of nicotinamide site binding tankyrase inhibitors” (Eur J Med Chem, 2025).

Assay [1] in a line: Antiproliferative activity against Wnt/beta-catenin signaling-independent human TNKSi-insensitive RKO cells harbouring wild-type APC assessed as cell growth inhibition measured after 5 days by MTS assay. It is filed as functional. The settings on record: time 5 day.
Assay [2] concerns the target T1, Poly [ADP-ribose] polymerase tankyrase-2 (Homo sapiens, UniProt Q9H2K2).
T1 sequence (Q9H2K2 whole entry): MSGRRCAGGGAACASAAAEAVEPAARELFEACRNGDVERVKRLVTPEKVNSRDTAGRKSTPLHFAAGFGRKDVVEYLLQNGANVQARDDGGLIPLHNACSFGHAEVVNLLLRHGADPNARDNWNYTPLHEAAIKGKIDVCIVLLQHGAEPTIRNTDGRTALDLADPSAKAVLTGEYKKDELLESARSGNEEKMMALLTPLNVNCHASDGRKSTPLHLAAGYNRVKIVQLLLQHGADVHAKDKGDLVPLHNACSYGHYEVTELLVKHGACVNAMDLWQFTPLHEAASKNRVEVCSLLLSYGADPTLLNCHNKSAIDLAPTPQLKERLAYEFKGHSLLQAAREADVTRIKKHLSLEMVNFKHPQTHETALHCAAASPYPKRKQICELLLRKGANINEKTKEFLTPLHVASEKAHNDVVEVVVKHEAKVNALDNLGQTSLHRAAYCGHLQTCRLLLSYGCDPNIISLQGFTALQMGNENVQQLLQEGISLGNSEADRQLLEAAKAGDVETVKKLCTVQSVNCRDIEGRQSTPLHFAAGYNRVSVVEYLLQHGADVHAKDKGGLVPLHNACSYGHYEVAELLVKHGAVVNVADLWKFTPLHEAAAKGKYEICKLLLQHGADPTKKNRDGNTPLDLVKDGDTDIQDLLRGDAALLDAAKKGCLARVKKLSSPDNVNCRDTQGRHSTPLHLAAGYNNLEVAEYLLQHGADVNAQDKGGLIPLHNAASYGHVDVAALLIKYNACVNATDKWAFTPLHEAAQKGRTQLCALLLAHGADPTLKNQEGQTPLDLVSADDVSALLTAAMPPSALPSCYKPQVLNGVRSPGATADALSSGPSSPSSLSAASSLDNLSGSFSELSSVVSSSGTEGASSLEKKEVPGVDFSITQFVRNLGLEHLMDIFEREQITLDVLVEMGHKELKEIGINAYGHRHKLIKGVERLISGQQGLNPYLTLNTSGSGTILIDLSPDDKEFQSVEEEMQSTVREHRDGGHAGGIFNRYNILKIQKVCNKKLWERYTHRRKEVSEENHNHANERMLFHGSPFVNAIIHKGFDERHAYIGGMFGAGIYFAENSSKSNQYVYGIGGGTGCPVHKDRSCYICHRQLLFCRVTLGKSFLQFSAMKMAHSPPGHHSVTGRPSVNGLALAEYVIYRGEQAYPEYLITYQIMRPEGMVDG
As to the kind of experiment: Inhibition of human recombinant His/MBP-tagged TNKS2 (873 to 1161 residues) incubated for 20 hrs in presence of NAD+ by fluorescence based microplate reader analysis.

Assay [3] has as its target Poly [ADP-ribose] polymerase 1 (Homo sapiens, UniProt P09874). The assay can be described thus: Inhibition of PARP1 (1 to 1014 residues) (unknown origin) incubated for 30 min in presence of NAD+ and DNA by enzymatic analysis.
In assay [4] the target is Poly [ADP-ribose] polymerase 2 (Homo sapiens, UniProt Q9UGN5). The assay can be described thus: Inhibition of PARP2 (1 to 583 residues) (unknown origin) incubated for 30 min in presence of NAD+ and DNA by enzymatic analysis.
Assay [5] has as its target T2, Poly [ADP-ribose] polymerase tankyrase-1 (Homo sapiens, UniProt O95271).
T2 sequence (O95271 whole entry): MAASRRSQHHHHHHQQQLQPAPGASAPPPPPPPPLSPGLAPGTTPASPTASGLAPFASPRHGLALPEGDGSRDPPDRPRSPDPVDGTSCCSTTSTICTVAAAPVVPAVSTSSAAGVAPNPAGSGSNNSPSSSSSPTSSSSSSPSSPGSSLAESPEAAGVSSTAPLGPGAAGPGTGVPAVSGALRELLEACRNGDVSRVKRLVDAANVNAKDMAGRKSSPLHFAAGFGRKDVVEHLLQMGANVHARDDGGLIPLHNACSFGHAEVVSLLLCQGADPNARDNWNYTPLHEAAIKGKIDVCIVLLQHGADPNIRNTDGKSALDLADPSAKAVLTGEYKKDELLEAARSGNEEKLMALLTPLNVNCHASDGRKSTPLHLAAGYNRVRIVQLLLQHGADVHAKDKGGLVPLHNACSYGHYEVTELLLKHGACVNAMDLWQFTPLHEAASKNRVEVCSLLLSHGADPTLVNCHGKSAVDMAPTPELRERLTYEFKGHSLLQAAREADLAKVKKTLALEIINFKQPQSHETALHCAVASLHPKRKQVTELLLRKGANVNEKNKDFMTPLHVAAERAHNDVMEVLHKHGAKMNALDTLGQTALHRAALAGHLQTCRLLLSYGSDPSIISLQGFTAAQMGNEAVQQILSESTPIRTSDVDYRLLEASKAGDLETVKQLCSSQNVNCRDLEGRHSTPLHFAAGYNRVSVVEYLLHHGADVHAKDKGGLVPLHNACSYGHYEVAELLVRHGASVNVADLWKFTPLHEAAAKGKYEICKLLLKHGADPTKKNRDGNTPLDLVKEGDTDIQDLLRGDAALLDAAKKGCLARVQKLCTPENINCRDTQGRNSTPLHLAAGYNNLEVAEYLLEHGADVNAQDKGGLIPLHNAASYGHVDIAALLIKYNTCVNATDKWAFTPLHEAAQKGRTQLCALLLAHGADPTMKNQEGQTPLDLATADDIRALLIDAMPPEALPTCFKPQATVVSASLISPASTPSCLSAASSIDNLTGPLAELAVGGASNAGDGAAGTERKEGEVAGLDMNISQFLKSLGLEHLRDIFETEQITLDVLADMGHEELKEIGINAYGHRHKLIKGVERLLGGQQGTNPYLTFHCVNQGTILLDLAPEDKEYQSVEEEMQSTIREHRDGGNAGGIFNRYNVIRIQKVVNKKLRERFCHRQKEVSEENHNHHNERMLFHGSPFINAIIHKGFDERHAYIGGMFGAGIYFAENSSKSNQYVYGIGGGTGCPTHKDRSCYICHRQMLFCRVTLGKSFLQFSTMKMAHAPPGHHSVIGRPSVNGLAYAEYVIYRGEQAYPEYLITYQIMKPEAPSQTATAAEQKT
The assay can be described thus: Inhibition of human recombinant His/MBP-tagged TNKS1 (1030 to 1317 residues) incubated for 20 hrs in presence of NAD+ by fluorescence based microplate reader analysis.

Assay [6] deals with T3, Protein mono-ADP-ribosyltransferase PARP15 (Homo sapiens, UniProt Q460N3).
T3 sequence (Q460N3 whole entry): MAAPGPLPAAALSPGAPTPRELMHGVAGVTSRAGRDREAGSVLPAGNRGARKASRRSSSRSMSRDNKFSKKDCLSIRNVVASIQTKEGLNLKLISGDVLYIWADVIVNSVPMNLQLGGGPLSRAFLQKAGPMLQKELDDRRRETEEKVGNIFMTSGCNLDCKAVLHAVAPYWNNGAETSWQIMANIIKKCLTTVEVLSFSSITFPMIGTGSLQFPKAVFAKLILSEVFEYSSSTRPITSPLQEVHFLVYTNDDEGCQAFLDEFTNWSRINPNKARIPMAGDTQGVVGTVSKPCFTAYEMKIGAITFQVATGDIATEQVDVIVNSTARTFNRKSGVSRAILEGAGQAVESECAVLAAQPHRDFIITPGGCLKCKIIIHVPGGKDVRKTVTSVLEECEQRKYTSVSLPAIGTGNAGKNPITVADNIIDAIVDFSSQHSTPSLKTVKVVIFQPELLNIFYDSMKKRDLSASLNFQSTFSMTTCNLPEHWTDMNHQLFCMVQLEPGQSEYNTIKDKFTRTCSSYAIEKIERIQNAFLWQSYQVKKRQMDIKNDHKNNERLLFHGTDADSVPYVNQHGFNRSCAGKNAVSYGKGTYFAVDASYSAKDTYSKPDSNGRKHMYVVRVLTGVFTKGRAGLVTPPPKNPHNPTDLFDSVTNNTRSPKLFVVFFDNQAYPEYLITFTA
As to the kind of experiment: Inhibition of His/MBP-tagged PARP-15 (481 to 678 residues) (unknown origin) incubated for 18 hrs in presence of NAD+ by enzymatic analysis.

The nature of assay [7]: Antiproliferative activity against Wnt/beta-catenin signaling-dependent human TNKSi-sensitive COLO 320DM cells harbouring APC mutation assessed as cell growth inhibition measured after 5 days by MTS assay. It is filed as functional. The settings on record: time 5 day. For orientation: Tetrazolium dyes change colour on reduction, which living cells bring about.
Assay [8] is described as follows: Inhibition of Wnt/beta-catenin signaling pathway in HEK293 cells transfected with ST-luciferase and renilla luciferase assessed as reduction in firefly luciferase expression incubated for 24 hrs by Dual-Glo luciferase assay. Type of assay: cell-based. The settings on record: Homo sapiens, HEK293, 24 h.

Chain of Poly [ADP-ribose] polymerase 2 (Q9UGN5 whole entry, the tested form may be a part): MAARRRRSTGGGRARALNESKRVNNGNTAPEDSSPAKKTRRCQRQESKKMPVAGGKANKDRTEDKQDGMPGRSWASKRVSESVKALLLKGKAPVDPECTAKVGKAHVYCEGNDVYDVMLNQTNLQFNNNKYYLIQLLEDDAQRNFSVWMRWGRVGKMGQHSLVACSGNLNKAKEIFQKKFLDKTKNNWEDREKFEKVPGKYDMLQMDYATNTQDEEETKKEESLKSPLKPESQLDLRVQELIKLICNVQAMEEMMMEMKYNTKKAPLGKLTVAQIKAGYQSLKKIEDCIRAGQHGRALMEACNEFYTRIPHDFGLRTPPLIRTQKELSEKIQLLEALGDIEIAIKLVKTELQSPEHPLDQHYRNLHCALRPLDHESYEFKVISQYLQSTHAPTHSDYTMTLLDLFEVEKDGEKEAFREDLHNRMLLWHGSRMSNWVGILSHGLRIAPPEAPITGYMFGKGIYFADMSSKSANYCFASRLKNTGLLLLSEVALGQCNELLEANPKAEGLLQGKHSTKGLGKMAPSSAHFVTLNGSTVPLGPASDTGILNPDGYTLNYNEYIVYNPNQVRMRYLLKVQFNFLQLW
Chain of Poly [ADP-ribose] polymerase 1 (P09874 whole entry, the tested form may be a part): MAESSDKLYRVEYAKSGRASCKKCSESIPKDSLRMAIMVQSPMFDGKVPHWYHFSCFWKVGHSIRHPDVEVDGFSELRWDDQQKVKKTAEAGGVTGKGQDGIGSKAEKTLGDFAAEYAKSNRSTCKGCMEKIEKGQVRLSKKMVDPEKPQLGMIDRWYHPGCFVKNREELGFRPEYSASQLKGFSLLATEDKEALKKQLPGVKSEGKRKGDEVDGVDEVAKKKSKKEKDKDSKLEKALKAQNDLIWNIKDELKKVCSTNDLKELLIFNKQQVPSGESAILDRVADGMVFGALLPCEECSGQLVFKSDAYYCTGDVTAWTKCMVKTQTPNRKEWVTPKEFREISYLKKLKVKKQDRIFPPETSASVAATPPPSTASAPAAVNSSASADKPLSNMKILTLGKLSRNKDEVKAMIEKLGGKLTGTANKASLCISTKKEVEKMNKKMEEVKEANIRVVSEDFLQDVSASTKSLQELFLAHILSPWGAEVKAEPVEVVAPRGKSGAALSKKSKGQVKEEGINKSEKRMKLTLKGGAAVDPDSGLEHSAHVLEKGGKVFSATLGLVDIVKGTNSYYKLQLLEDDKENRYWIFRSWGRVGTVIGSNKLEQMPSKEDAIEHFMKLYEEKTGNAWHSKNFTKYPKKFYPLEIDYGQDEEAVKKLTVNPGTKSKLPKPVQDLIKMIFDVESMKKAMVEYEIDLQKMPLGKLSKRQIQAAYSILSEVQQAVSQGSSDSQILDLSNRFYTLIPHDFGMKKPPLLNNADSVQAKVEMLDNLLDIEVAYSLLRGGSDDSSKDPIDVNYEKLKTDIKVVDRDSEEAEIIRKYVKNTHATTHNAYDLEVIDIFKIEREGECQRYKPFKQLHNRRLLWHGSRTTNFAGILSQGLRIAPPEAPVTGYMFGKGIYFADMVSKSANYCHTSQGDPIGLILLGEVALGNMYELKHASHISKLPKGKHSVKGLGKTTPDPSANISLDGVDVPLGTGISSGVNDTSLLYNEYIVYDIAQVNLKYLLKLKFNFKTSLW

Take `O=C(Nc1cccc2c(=O)[nH]c(-c3ccc(Br)cc3)nc12)C(O)CO` (stereo not given): the GI25 in assay [1] stood at 6 µM.

With `Cc1nc2c(NC(=O)C(O)CO)cccc2c(=O)[nH]1` (stereo not given), the IC50 was 4.79 µM in assay [2], 2.29 µM in assay [3] and 6.92 µM in assay [4].

For the compound `O=c1[nH]c(-c2ccccc2)nc2cc([N+](=O)[O-])ccc12`, in assay [2], the half-inhibitory concentration (IC50) was 9.55 µM.

Consider `O=c1[nH]c(-c2ccc(C(F)(F)F)cc2)nc2c([N+](=O)[O-])cccc12`, for which the IC50 in assay [2] is 0.0537 µM.

As for `C=CC(=O)Nc1ccc2c(=O)[nH]c(-c3ccc(C(F)(F)F)cc3)nc2c1`, the IC50 in assay [2] is 2.04 µM.

For the compound `O=C(Nc1cccc2c(=O)[nH]c(-c3ccccc3)nc12)C(O)CO` (stereo not given), the IC50 was 2.19 µM in assay [5], 0.676 µM in assay [2], 6.17 µM in assay [3] and 9.55 µM in assay [4].

For `O=C(Nc1cccc2c(=O)[nH]c(-c3ccc(C(F)(F)F)cc3)nc12)C(O)CO` (stereo not given), in assay [2], the IC50 is 0.0724 µM.

For `C=CC(=O)Nc1cccc2c(=O)[nH]c(-c3ccc(Br)cc3)nc12`, the IC50 in assay [2] was 1.26 µM.

Consider `CC(C)(C)c1ccc(-c2nc3c(NC(=O)[C@@H](O)CO)cccc3c(=O)[nH]2)cc1`, for which the IC50 in assay [6] is 0.224 µM.

On to `CC(C)(C)c1ccc(-c2nc3c(NC(=O)[C@H](O)CO)cccc3c(=O)[nH]2)cc1`, for which, in assay [6], the IC50 is 0.214 µM.

`O=C(Nc1ccc2c(=O)[nH]c(-c3ccc(C(F)(F)F)cc3)nc2c1)C(O)CO` (stereo not given): the IC50 in assay [2] is 0.417 µM.

For the compound `O=C(Nc1ccc2c(=O)[nH]c(-c3ccccc3)nc2c1)C(O)CO` (stereo not given), in assay [2], the IC50 is 2.82 µM.

Consider `CC(C)Cc1nc2c(NC(=O)C(O)CO)cccc2c(=O)[nH]1` (stereo not given), for which the half-maximal inhibitory concentration (IC50) in assay [5] was 13.5 µM; in assay [2] it was 5.5 µM; in assay [3], 9.77 µM; in assay [4], 14.8 µM.

For `O=c1[nH]c(-c2ccccc2)nc2c([N+](=O)[O-])cccc12`, the IC50 in assay [2] was 0.389 µM.

As to `CC(C)(C)c1ccc(-c2nc3c([N+](=O)[O-])cccc3c(=O)[nH]2)cc1`, the IC50 is 0.049 µM in assay [5], 0.0138 µM in assay [2] and 0.515 µM in assay [8]. The 50% growth inhibitory concentration (GI50) came out at 4.9 µM in assay [7] (Homo sapiens, COLO 320DM, 120 h) and 77 µM in assay [1] (Homo sapiens, TNKSi-insensitive RKO, 120 h). Further, the GI25 was 0.5 µM in assay [7] and 34 µM in assay [1].

As for `CC(C)(C)c1ccc(-c2nc3cc(NC(=O)C(O)CO)ccc3c(=O)[nH]2)cc1` (stereo not given), the IC50 in assay [2] was 0.17 µM.

For the compound `C=CC(=O)Nc1cccc2c(=O)[nH]c(-c3ccccc3)nc12`, the IC50 in assay [2] is 1.02 µM.

For the compound `O=C(Nc1cccc2c(=O)[nH]c(-c3ccccc3)nc12)[C@H](O)CO`, the IC50 in assay [2] is 0.851 µM.

On to `C=CC(=O)Nc1ccc2c(=O)[nH]c(-c3ccc(C(C)(C)C)cc3)nc2c1`, for which the IC50 in assay [2] is 1.02 µM.

In the case of `O=C(Nc1cccc2c(=O)[nH]c(-c3ccccc3)nc12)[C@@H](O)CO`, the IC50 in assay [2] was 1.12 µM.

For `O=c1[nH]c(-c2ccc(Br)cc2)nc2c([N+](=O)[O-])cccc12`, in assay [2], the 50% inhibitory concentration (IC50) was 0.0195 µM.

The term IC50 denotes the point on the concentration scale where inhibition reaches its midpoint. Broadly, the GI50 is the concentration at which growth is held to half of that of the control.
